Experimental data: ChEMBL document CHEMBL4834420, “Projected Dose Optimization of Amino- and Hydroxypyrrolidine Purine PI3Kδ Immunomodulators” (J Med Chem, 2021)

Tests used:
[1] = target: PI3-kinase p110-delta/p85-alpha (Homo sapiens, UniProt O00329); assay: Inhibition of N-terminal His6-tagged recombinant full length human p110delta/untagged recombinant full length human p85alpha expressed in baculovirus infected Sf21 insect cells using PIP2 as substrate preincubated for 15 mins followed by substrate addition and measured after 1 hr by HTRF assay
[2] = target: T1, Phosphatidylinositol 4,5-bisphosphate 3-kinase catalytic subunit delta isoform (Homo sapiens, UniProt O00329); assay: Inhibition of PI3Kdelta in human Ramos cells assessed as reduction in anti-IgM-antibody-induced phosphorylation of AKT at Ser473 residue preincubated for 20 mins followed by anti-IgM antibody stimulation and measured after 30 mins by alphascreen assay; type: cell-based
T1 sequence (O00329 whole entry): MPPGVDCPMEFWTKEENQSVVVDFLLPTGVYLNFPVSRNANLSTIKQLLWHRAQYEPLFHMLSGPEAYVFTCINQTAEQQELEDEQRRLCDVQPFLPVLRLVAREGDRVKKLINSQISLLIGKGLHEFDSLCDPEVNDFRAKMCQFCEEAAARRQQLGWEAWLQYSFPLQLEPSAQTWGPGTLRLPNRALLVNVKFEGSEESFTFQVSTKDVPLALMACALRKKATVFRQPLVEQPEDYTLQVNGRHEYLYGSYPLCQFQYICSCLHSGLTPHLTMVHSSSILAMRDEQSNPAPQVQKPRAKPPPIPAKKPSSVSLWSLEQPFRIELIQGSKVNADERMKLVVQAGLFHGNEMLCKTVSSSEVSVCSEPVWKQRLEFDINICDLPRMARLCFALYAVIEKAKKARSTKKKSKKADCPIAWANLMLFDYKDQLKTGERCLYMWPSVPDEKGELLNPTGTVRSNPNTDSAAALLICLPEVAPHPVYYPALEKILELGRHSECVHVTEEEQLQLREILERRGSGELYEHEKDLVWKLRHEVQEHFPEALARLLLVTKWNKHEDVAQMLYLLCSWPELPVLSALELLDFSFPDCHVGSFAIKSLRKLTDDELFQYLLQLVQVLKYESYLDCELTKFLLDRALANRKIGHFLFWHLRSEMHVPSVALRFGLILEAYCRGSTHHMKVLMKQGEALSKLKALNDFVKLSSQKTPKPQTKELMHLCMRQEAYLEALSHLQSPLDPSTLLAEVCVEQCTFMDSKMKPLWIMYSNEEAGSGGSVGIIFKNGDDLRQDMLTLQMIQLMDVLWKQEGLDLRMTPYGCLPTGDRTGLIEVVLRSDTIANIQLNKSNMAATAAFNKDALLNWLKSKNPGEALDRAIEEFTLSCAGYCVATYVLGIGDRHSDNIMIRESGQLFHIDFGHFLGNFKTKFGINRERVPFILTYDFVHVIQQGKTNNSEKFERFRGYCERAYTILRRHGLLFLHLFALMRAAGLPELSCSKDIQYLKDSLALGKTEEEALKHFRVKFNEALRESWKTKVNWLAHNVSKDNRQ

[3] = Inhibition of adenosine transporter in human HeLa cells assessed as reduction in [3H]adenosine uptake preincubated for 30 mins followed by [3H]adenosine addition and measured after 60 mins; type: cell-based
[4] = target: T1, Phosphatidylinositol 4,5-bisphosphate 3-kinase catalytic subunit delta isoform; assay: Inhibition of PI3Kdelta in human whole blood assessed as reduction in anti-CD79b antibody-induced CD69 expression preincubated for 60 mins followed by anti-CD79b antibody stimulation and measured after 3 hrs by FACS analysis; type: tissue-based
[5] = Apparent permeability in pig LLC-PK1 cells; type: ADME, cell-based, Sus scrofa
[6] = Lipophilicity, log D of the compound by HPLC analysis; type: physicochemical
[7] = Plasma clearance in Wistar Han rat at 0.5 mg/kg, iv or 1 mg/kg, po; type: ADME, organism-based
[8] = Intrinsic clearance in Wistar Han rat at 0.5 mg/kg, iv or 1 mg/kg, po; type: ADME, organism-based; conditions: in vivo
[9] = Volume of distribution in Wistar Han rat; type: ADME; conditions: in vivo
[10] = Unbound volume of distribution in Wistar Han rat; type: ADME; conditions: in vivo
[11] = Half-life in Wistar Han rat; type: ADME; conditions: in vivo
[12] = Oral bioavailability in Wistar Han rat; type: ADME, organism-based; conditions: in vivo
[13] = Plasma clearance in Beagle dog at 0.25 mg/kg, iv or 0.5 mg/kg, po; type: ADME, organism-based, Canis lupus familiaris
[14] = Intrinsic clearance in Beagle dog at 0.25 mg/kg, iv or 0.5 mg/kg, po; type: ADME, organism-based, Canis lupus familiaris; conditions: in vivo
[15] = Volume of distribution in Beagle dog; type: ADME, Canis lupus familiaris; conditions: in vivo
[16] = Unbound volume of distribution in Beagle dog; type: ADME, Canis lupus familiaris; conditions: in vivo
[17] = Half-life in Beagle dog; type: ADME, Canis lupus familiaris; conditions: in vivo
[18] = Oral bioavailability in Beagle dog; type: ADME, organism-based, Canis lupus familiaris; conditions: in vivo

PI3-kinase p110-delta/p85-alpha, sequence (P27986 whole entry, one chain of several, canonical isoform): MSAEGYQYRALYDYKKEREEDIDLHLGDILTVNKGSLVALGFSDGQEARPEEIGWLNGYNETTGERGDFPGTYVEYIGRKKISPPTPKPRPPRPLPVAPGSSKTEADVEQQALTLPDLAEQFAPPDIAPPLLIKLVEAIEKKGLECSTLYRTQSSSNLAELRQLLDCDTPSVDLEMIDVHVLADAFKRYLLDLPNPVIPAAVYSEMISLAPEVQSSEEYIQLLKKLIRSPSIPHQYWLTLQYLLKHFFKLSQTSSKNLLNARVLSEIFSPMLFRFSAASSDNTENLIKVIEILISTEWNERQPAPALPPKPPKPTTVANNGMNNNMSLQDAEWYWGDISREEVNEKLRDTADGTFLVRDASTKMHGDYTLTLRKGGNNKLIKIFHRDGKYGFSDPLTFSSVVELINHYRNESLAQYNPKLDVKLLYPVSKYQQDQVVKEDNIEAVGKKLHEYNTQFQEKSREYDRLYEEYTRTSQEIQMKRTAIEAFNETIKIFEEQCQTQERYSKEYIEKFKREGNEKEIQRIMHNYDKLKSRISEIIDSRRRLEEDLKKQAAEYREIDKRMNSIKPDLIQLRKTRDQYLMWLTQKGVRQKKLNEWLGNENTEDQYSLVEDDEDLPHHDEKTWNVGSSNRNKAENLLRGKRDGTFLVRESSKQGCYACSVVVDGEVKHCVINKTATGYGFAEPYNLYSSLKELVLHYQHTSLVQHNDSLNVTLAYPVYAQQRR

CCn1c(-c2ccc(C(F)(F)F)nc2)nc2c(O[C@H]3CCN(C(=O)N4CC(OC)C4)C3)ncnc21
IC50 [1]: 1.3 nM
IC50 [2]: 43 nM
IC50 [3]: 2200 nM
IC50 [4]: 68 nM
Papp [5]: 33 ×10⁻⁶ cm/s
logD [6]: 2.1
clearance [7]: 1.7 mL/min/kg
CL [8]: 29 mL/min/kg
Vd [9]: 0.2 L/kg
Vdu [10]: 4.2 L/kg
half-life [11]: 2 h
bioavailability [12]: 52%
clearance [13]: 12 mL/min/kg
CL [14]: 46 mL/min/kg
Vd [15]: 0.7 L/kg
Vdu [16]: 1.7 L/kg
half-life [17]: 0.7 h
bioavailability [18]: 100%

CCn1c(-c2cnc(C)nc2)nc2c(O[C@H]3CCN(C(=O)c4cocn4)C3)ncnc21
IC50 [1]: 6.4 nM
IC50 [2]: 94 nM
IC50 [3]: > 10000 nM
IC50 [4]: 600 nM
logD [6]: 0.7
clearance [7]: 3.7 mL/min/kg
CL [8]: 25 mL/min/kg
Vd [9]: 0.5 L/kg
Vdu [10]: 3.2 L/kg
half-life [11]: 1.7 h
bioavailability [12]: 50%
clearance [13]: 9.3 mL/min/kg
CL [14]: 16 mL/min/kg
Vd [15]: 1.7 L/kg
Vdu [16]: 1.9 L/kg
half-life [17]: 1.8 h
bioavailability [18]: 100%

CCC(=O)N1CC[C@H](Nc2ncnc3c2nc(-c2ccn(CC)c2C)n3C)C1
IC50 [1]: 26 nM
IC50 [2]: 125 nM

CCn1c(-c2cnc(C)nc2)nc2c(N[C@H]3CCN(C(=O)N4CC(OC)C4)C3)ncnc21
IC50 [1]: 0.7 nM
IC50 [2]: 67 nM
IC50 [3]: 4700 nM
IC50 [4]: 9 nM
Papp [5]: 10 ×10⁻⁶ cm/s
logD [6]: 0.7
clearance [7]: 11 mL/min/kg
CL [8]: 93 mL/min/kg
Vd [9]: 0.7 L/kg
Vdu [10]: 4.8 L/kg
half-life [11]: 4 h
bioavailability [12]: 16%
clearance [13]: 9 mL/min/kg
CL [14]: 19 mL/min/kg
Vd [15]: 1.4 L/kg
Vdu [16]: 1.9 L/kg
half-life [17]: 1.7 h
bioavailability [18]: 69%

CCC(=O)N1CC[C@H](Nc2ncnc3c2nc(-c2ccc(C)nc2)n3C)C1
IC50 [1]: 5 nM
IC50 [2]: 160 nM
IC50 [3]: 3800 nM

CCCn1c(-c2cnc(C)nc2)nc2c(N[C@H]3CCN(C(=O)CC)C3)ncnc21
IC50 [1]: 135 nM
IC50 [2]: 455 nM

CCC(=O)N1CC[C@H](Nc2ncnc3c2nc(-c2cnc(C(C)(C)C)s2)n3C)C1
IC50 [1]: 0.7 nM
IC50 [2]: 4 nM
IC50 [3]: 1600 nM

CCC(=O)N1CC[C@H](Nc2ncnc3c2nc(-c2ccc(C(F)(F)F)nc2)n3C)C1
IC50 [1]: 9.9 nM
IC50 [2]: 66 nM
IC50 [3]: 700 nM

CCn1c(-c2ccc(C(F)(F)F)nc2)nc2c(O[C@H]3CCN(C(=O)[C@H]4C[C@@H](OC)C4)C3)ncnc21
IC50 [1]: 1.6 nM
IC50 [2]: 67 nM
IC50 [3]: 4100 nM
IC50 [4]: 73 nM
Papp [5]: 35 ×10⁻⁶ cm/s
logD [6]: 2.2
clearance [7]: 3.6 mL/min/kg
CL [8]: 130 mL/min/kg
Vd [9]: 0.4 L/kg
Vdu [10]: 13 L/kg
half-life [11]: 3.3 h
bioavailability [12]: 39%
clearance [13]: 6.2 mL/min/kg
CL [14]: 18 mL/min/kg
Vd [15]: 1.1 L/kg
Vdu [16]: 2.5 L/kg
half-life [17]: 2.6 h
bioavailability [18]: 100%

CCn1c(-c2cnc(C)nc2)nc2c(O[C@H]3CCN(C(=O)C4CC4)C3)ncnc21
IC50 [1]: 5.9 nM
IC50 [2]: 80 nM
IC50 [3]: 5300 nM
IC50 [4]: 270 nM
Papp [5]: 28 ×10⁻⁶ cm/s
logD [6]: 1
clearance [7]: 9.7 mL/min/kg
CL [8]: 44 mL/min/kg
Vd [9]: 0.7 L/kg
Vdu [10]: 2.8 L/kg
half-life [11]: 1.8 h
bioavailability [12]: 64%
clearance [13]: 4.9 mL/min/kg
CL [14]: 7 mL/min/kg
Vd [15]: 0.6 L/kg
Vdu [16]: 0.7 L/kg
half-life [17]: 1.3 h
bioavailability [18]: 100%

CCC(=O)N1CC[C@H](Nc2ncnc3c2nc(-c2cnc(OC)c(F)c2)n3C)C1
IC50 [1]: 2.6 nM
IC50 [2]: 20 nM
IC50 [3]: 1300 nM

CCC(=O)N1CC[C@H](Nc2ncnc3c2nc(-c2cnn(CC)c2C)n3C2CC2)C1
IC50 [1]: 39 nM
IC50 [2]: 720 nM

CCn1c(-c2cnc(C)nc2)nc2c(N[C@H]3CCN(C(=O)C4CCOCC4)C3)ncnc21
IC50 [1]: 2.1 nM
IC50 [2]: 33 nM
IC50 [3]: 8900 nM
logD [6]: 0.7
clearance [7]: 24 mL/min/kg
CL [8]: 220 mL/min/kg
Vd [9]: 0.7 L/kg
Vdu [10]: 4.3 L/kg
half-life [11]: 1.4 h
bioavailability [12]: 18%

CCC(=O)N1CC[C@H](Nc2ncnc3c2nc(-c2cnc(OC)c(C)c2)n3C)C1
IC50 [2]: 6 nM
IC50 [3]: 300 nM

CCC(=O)N1CC[C@H](Nc2ncnc3c2nc(-c2cnc(C)nc2)n3C)C1
IC50 [1]: 4.2 nM
IC50 [2]: 71 nM
IC50 [3]: 2000 nM

CCC(=O)N1CC[C@H](Nc2ncnc3c2nc(-c2cnn(CC)c2C)n3CC(F)(F)F)C1
IC50 [1]: 5.9 nM
IC50 [2]: 330 nM
IC50 [3]: 9300 nM

CCC(=O)N1CC[C@H](Nc2ncnc3c2nc(-c2cnn(CC)c2C)n3CC)C1
IC50 [1]: 0.2 nM
IC50 [2]: 2 nM
IC50 [3]: 2300 nM

CCC(=O)N1CC[C@H](Nc2ncnc3c2nc(-c2cnn(CC)c2C)n3CC(F)F)C1
IC50 [1]: 1.3 nM
IC50 [2]: 14 nM
IC50 [3]: 3100 nM

CCC(=O)N1CC[C@H](Nc2ncnc3c2nc(-c2cnn(CC)c2C)n3CC2CC2)C1
IC50 [2]: 1350 nM

CCC(=O)N1CC[C@H](Nc2ncnc3c2nc(-c2ccc(OC)nc2)n3C)C1
IC50 [2]: 67 nM
IC50 [3]: 1900 nM

CCC(=O)N1CC[C@H](Nc2ncnc3c2nc(-c2cnn(CC)c2C)n3C)C1
IC50 [3]: 7300 nM

CCCn1c(-c2cnn(CC)c2C)nc2c(N[C@H]3CCN(C(=O)CC)C3)ncnc21
IC50 [1]: 21 nM
IC50 [2]: 198 nM
IC50 [3]: 3700 nM

CCC(=O)N1CC[C@H](Nc2ncnc3[nH]c(-c4cnn(CC)c4C)nc23)C1
IC50 [1]: 7.6 nM
IC50 [2]: 875 nM
IC50 [3]: 5400 nM
